US20100215710A1, “Beta-2 Adrenergic Receptor Agonists and Antagonists and Modulation of Wound Healing” (The Regents of the University of California, priority 2005, published 2010)

Tests used:
adult human CECs = test: Single cell migration assay, adult human corneal epithelial cells; format: cell-based
Procedure: Glass bottomed 35 mm dishes (MatTek Corporation, Ashland, Mass.) were coated with collagen I (60 μg/ml) (Cohesion Technologies, Palo Alto, Calif.) in PBS for 1 hour at 37° C. Adult human CECs were plated at a density of 50 cells/mm^2 for 2 hours at 37° C. Cells were pre-incubated with either CGM alone or CGM containing 100 nM okadaic acid (OA) for 45 minutes at 37° C. Untreated cells were then incubated with CGM alone (control) or with CGM containing either 20 μM β-AR antagonist, 10 nM or 1 μM β-AR agonist. Pre-treated cells were stimulated with 100 nM OA alone or both 10 nM or 1 μM β-AR agonist and 100 nM OA at time 0. The 35 mm glass-bottomed dishes were placed in a heating chamber, designed to maintain the media between 35-37° C., secured to the stage of an inverted Nikon Diaphot microscope. Individual cell migration was monitored over a 1 hour period at 37° C., as described previously (Pullar and Isseroff (2005b) “Cyclic AMP mediates keratinocyte directional migration in an electric field” J Cell Sci 118:2023-2034). […] After each cell's center of mass was tracked using the Open Lab software, migration speed and distance were calculated and imported to Excel (Microsoft Corporation, Redmond, Wash.). […]

human keratinocytes = test: Immunofluorescent staining of actin and vinculin, keratinocytes (β-AR agonist, OA); format: cell-based
Procedure: (§1) Sterile glass cover-slips (Fisher Scientific, Pittsburgh, Pa.) were transferred into 12 well dishes and collagen-coated with 60 μg/ml collagen I in KGM for 1 hour at 37° C. Cover-slips were washed three times with KGM and 3×10^4 cells were added per well and allowed to attach overnight. Cells were untreated, treated with 1 μM β-AR agonist for 15 minutes, OA (10 nM) for 45 minutes, or pre-treated with OA (10 nM) for 30 minutes prior to the addition of 1 μM β-AR agonist for 15 minutes. All steps were performed at room temperature unless otherwise noted. Cover slips were washed twice in PBS and fixed for 10 minutes in 4% paraformaldehyde. Cover-slips were washed twice in PBS between each step. Cells were permeabilized for 5 minutes with 0.1% Triton-X-100/PBS, blocked with 5% goat serum/PBS for 20 minutes, primary monoclonal anti-vinculin antibody (Sigma, St. Louis, Mo.) or anti-phospho-ERK antibody (Cell Signaling Technology, Beverly, Mass.) were added drop-wise in 1% goat serum/PBS (1:100) and incubated for 1 hour at 37° C. A goat anti-mouse cy3 (Jackson labs, West Grove, Pa.) (1:100) antibody was then added in 1% goat serum/PBS for 1 hour at 37° C. Alexa 488-phalloidin (Molecular Probes, Eugene, Oreg.) (1:40) in PBS was added to the vinculin-stained cover-slips for 20 minutes. […]

phospho-ERK = test: Phospho-ERK immunolocalization in keratinocytes; format: cell-based, human
Procedure: as §1

[1] = OA 10 nM pre-treatment prior to 1 μM β-AR agonist

With `C=C1[C@@H](O)[C@@H]2O[C@]3(CC[C@H](/C=C/[C@@H](C)[C@@H]4CC(C)=C[C@@]5(O[C@H](C[C@@](C)(O)C(=O)O)CC[C@H]5O)O4)O3)CC[C@H]2O[C@@H]1[C@@H](O)C[C@H](C)[C@H]1O[C@@]2(CCCCO2)CC[C@H]1C` [OA, okadaic acid] the “effect on migration rate” value (adult human CECs; OA 100 nM alone) was “no effect”, the “effect on β-AR agonist-mediated decrease in migration rate” value (adult human CECs; OA 100 nM pre-treatment, then OA plus β-AR agonist) was “completely prevents” and the “effect on cytoskeletal conformation” value (human keratinocytes; OA 10 nM alone, 45 minutes) was “no effect”. The “effect on β2-AR-mediated change in cytoskeletal conformation” value (human keratinocytes; [1]) was “prevents”, the “effect on level of ERK phosphorylation or localization” value (phospho-ERK; OA 10 nM alone) was “no effect” and the “effect on agonist-induced loss of lamellipodial phospho-ERK localization and nuclear/peri-nuclear decrease” value (phospho-ERK; [1]) was “prevents”.
